Patent US8192962B2, “Processes for detecting toxic substances” (Daikin Industries, Ltd., priority 2001, dated 2012)

System: Energy system protein genes
Assay: DNA chip mRNA expression in yeast, energy system protein genes (Table 4)
Assay type: cell-based, Saccharomyces cerevisiae S288C
In short: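 In this screen, yeast in logarithmic growth are challenged for two hours with a toxic substance at a non-lethal inhibitory concentration. Their mRNA, converted to Cy3- or Cy5-labeled cDNA, hybridizes at 65° C. to a chip spanning every yeast gene, and expression is expressed as a ratio to untreated cells.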

Compound: [Cl][Hg][Cl] [(3), HgCl2]
- The level of expressed mRNA in the presence of chemical substance/The level of expressed mRNA in the absence of chemical substance (yeast gene YJR048W): 2.2
- The level of expressed mRNA in the presence of chemical substance/The level of expressed mRNA in the absence of chemical substance (yeast gene YJR121W, cells incubated two hours with the chemical substance): 3.3
- The level of expressed mRNA in the presence of chemical substance/The level of expressed mRNA in the absence of chemical substance (yeast gene YJR155W): 1.4
- The level of expressed mRNA in the presence of chemical substance/The level of expressed mRNA in the absence of chemical substance (yeast gene YKL016C, cells incubated two hours with the chemical substance): 0.7
- The level of expressed mRNA in the presence of chemical substance/The level of expressed mRNA in the absence of chemical substance (yeast gene YKL060C, cells incubated two hours with the chemical substance): 2.5
- The level of expressed mRNA in the presence of chemical substance/The level of expressed mRNA in the absence of chemical substance (yeast gene YKL141W, cells incubated two hours with the chemical substance): 4.7
- The level of expressed mRNA in the presence of chemical substance/The level of expressed mRNA in the absence of chemical substance (yeast gene YKL148C, cells incubated two hours with the chemical substance): 3.7
- The level of expressed mRNA in the presence of chemical substance/The level of expressed mRNA in the absence of chemical substance (yeast gene YKR009C, cells incubated two hours with the chemical substance): 1.5
- The level of expressed mRNA in the presence of chemical substance/The level of expressed mRNA in the absence of chemical substance (yeast gene YKR058W, cells incubated two hours with the chemical substance, 25° C., YPD medium): 1.4
- The level of expressed mRNA in the presence of chemical substance/The level of expressed mRNA in the absence of chemical substance (yeast gene YKR097W): 1.3
- The level of expressed mRNA in the presence of chemical substance/The level of expressed mRNA in the absence of chemical substance (yeast gene YLL041C, cells incubated two hours with the chemical substance): 4.6
- The level of expressed mRNA in the presence of chemical substance/The level of expressed mRNA in the absence of chemical substance (yeast gene YLR038C, cells incubated two hours with the chemical substance): 0.6
- The level of expressed mRNA in the presence of chemical substance/The level of expressed mRNA in the absence of chemical substance (yeast gene YLR044C, cells incubated two hours with the chemical substance): 2.2
- The level of expressed mRNA in the presence of chemical substance/The level of expressed mRNA in the absence of chemical substance (yeast gene YLR134W, cells incubated two hours with the chemical substance): 2.3
- The level of expressed mRNA in the presence of chemical substance/The level of expressed mRNA in the absence of chemical substance (yeast gene YLR258W, cells incubated two hours with the chemical substance): 4.2
- The level of expressed mRNA in the presence of chemical substance/The level of expressed mRNA in the absence of chemical substance (yeast gene YLR284C, cells incubated two hours with the chemical substance): 3.8
- The level of expressed mRNA in the presence of chemical substance/The level of expressed mRNA in the absence of chemical substance (yeast gene YLR295C, cells incubated two hours with the chemical substance, 25° C., YPD medium): 1.1
- The level of expressed mRNA in the presence of chemical substance/The level of expressed mRNA in the absence of chemical substance (yeast gene YLR304C, cells incubated two hours with the chemical substance): 5.0
- The level of expressed mRNA in the presence of chemical substance/The level of expressed mRNA in the absence of chemical substance (yeast gene YLR345W): 1.4
- The level of expressed mRNA in the presence of chemical substance/The level of expressed mRNA in the absence of chemical substance (yeast gene YLR354C, cells incubated two hours with the chemical substance): 2.3
- The level of expressed mRNA in the presence of chemical substance/The level of expressed mRNA in the absence of chemical substance (yeast gene YLR377C, cells incubated two hours with the chemical substance): 1.8
- The level of expressed mRNA in the presence of chemical substance/The level of expressed mRNA in the absence of chemical substance (yeast gene YLR395C, cells incubated two hours with the chemical substance): 2.2
- The level of expressed mRNA in the presence of chemical substance/The level of expressed mRNA in the absence of chemical substance (yeast gene YML087C): 0.8
- The level of expressed mRNA in the presence of chemical substance/The level of expressed mRNA in the absence of chemical substance (yeast gene YML120C, cells incubated two hours with the chemical substance): 1.9
- The level of expressed mRNA in the presence of chemical substance/The level of expressed mRNA in the absence of chemical substance (yeast gene YML129C, cells incubated two hours with the chemical substance): 0.9
- The level of expressed mRNA in the presence of chemical substance/The level of expressed mRNA in the absence of chemical substance (yeast gene YMR073C, cells incubated two hours with the chemical substance): 1.2
- The level of expressed mRNA in the presence of chemical substance/The level of expressed mRNA in the absence of chemical substance (yeast gene YMR118C): 1.4
- The level of expressed mRNA in the presence of chemical substance/The level of expressed mRNA in the absence of chemical substance (yeast gene YMR205C, cells incubated two hours with the chemical substance): 2.3
- The level of expressed mRNA in the presence of chemical substance/The level of expressed mRNA in the absence of chemical substance (yeast gene YMR261C, cells incubated two hours with the chemical substance): 3.6
- The level of expressed mRNA in the presence of chemical substance/The level of expressed mRNA in the absence of chemical substance (yeast gene YMR267W, cells incubated two hours with the chemical substance, 25° C., YPD medium): 0.7
- The level of expressed mRNA in the presence of chemical substance/The level of expressed mRNA in the absence of chemical substance (yeast gene YMR323W, cells incubated two hours with the chemical substance): 2.9
- The level of expressed mRNA in the presence of chemical substance/The level of expressed mRNA in the absence of chemical substance (yeast gene YNL071W): 1.7
- The level of expressed mRNA in the presence of chemical substance/The level of expressed mRNA in the absence of chemical substance (yeast gene YNL202W, cells incubated two hours with the chemical substance): 1.2
- The level of expressed mRNA in the presence of chemical substance/The level of expressed mRNA in the absence of chemical substance (yeast gene YNL241C): 4.3
- The level of expressed mRNA in the presence of chemical substance/The level of expressed mRNA in the absence of chemical substance (yeast gene YNL331C): 1.3
- The level of expressed mRNA in the presence of chemical substance/The level of expressed mRNA in the absence of chemical substance (yeast gene YOL086C, cells incubated two hours with the chemical substance): 2.2
- The level of expressed mRNA in the presence of chemical substance/The level of expressed mRNA in the absence of chemical substance (yeast gene YOL165C): 1.8
- The level of expressed mRNA in the presence of chemical substance/The level of expressed mRNA in the absence of chemical substance (yeast gene YOR142W, cells incubated two hours with the chemical substance): 3.4
- The level of expressed mRNA in the presence of chemical substance/The level of expressed mRNA in the absence of chemical substance (yeast gene YOR178C, cells incubated two hours with the chemical substance): 4.8
- The level of expressed mRNA in the presence of chemical substance/The level of expressed mRNA in the absence of chemical substance (yeast gene YOR388C, cells incubated two hours with the chemical substance): 1.3
- The level of expressed mRNA in the presence of chemical substance/The level of expressed mRNA in the absence of chemical substance (yeast gene YPL031C, cells incubated two hours with the chemical substance): 1.4
- The level of expressed mRNA in the presence of chemical substance/The level of expressed mRNA in the absence of chemical substance (yeast gene YPL061W, cells incubated two hours with the chemical substance): 5.0
- The level of expressed mRNA in the presence of chemical substance/The level of expressed mRNA in the absence of chemical substance (yeast gene YPL088W): 0.6
- The level of expressed mRNA in the presence of chemical substance/The level of expressed mRNA in the absence of chemical substance (yeast gene YPL171C): 3.5
- The level of expressed mRNA in the presence of chemical substance/The level of expressed mRNA in the absence of chemical substance (yeast gene YPL240C): 2.4
- The level of expressed mRNA in the presence of chemical substance/The level of expressed mRNA in the absence of chemical substance (yeast gene YPL262W, cells incubated two hours with the chemical substance): 3.8
- The level of expressed mRNA in the presence of chemical substance/The level of expressed mRNA in the absence of chemical substance (yeast gene YPL275W, cells incubated two hours with the chemical substance): 1.3
- The level of expressed mRNA in the presence of chemical substance/The level of expressed mRNA in the absence of chemical substance (yeast gene YPL276W, cells incubated two hours with the chemical substance): 1.6
- The level of expressed mRNA in the presence of chemical substance/The level of expressed mRNA in the absence of chemical substance (yeast gene YPR048W, cells incubated two hours with the chemical substance): 0.9
- The level of expressed mRNA in the presence of chemical substance/The level of expressed mRNA in the absence of chemical substance (yeast gene YPR184W, cells incubated two hours with the chemical substance): 5.7
